{"source": "paper PMC9861623", "about": "“New Ferulic Acid and Amino Acid Derivatives with Increased Cosmeceutical and Pharmaceutical Potential” (Pharmaceutics, 2022)", "key": {"[1]": {"assay": "n-octanol/water partition coefficient by shake flask method", "format": "physicochemical", "experimental": "The n-octanol/water partition coefficient (log PO/W) was determined for ferulic acid and its derivatives by shake flask method. n-Octanol saturated with water and water saturated with n-octanol were prepared at 25 °C, 24 h prior to their use in the experiments. Then, a sample of 10 mg of compound was weighed with the accuracy of 0.01 mg in a 16 cm^3 screwed vial and dissolved in 5 cm^3 of n-octanol. Next, 5 cm^3 of water was added to the vial. The resulting two-phase mixture was kept in water bath shaker at 25 °C for 2 h and was strongly shaken to reach the partition equilibrium of the compound between the phases. Then the mixture was left unshaken for 30 min and 1.0 cm^3 of water phase was carefully taken out to centrifuge tube. The sample was next centrifuged for 10 min at 7500 rpm at 25 °C to ensure the most precise phase separation. The concentration of compound in water phase was then determined using HPLC method. The partition coefficient, log PO/W was calculated according to the formula: logPO/W=logC0V0−CWVW/CWVW where: C0—initial concentration of the compound in n-octanol, calculated based on the weighed mass of compound, mg·cm^−^3; V0—volume of n-octanol, cm^3; CW—concentration of the compound in water after partition equilibrium, mg·cm^−^3; VW—volume of water, cm^3."}, "[2]": {"assay": "DPPH radical scavenging assay of the compounds", "experimental": "(§1) To determine the antioxidant capacity of ferulic acid and its derivatives the DPPH method was used. The analyses were performed using the Hitachi UV-Vis Spectrophotometer U-5100 at the wavelength λ = 517 nm. Trolox (6-hydroxy-2,5,7,8-tetramethylchroman-2-carboxylic acid) was used as a reference substance. The antioxidant activity was expressed as %RSA and mmol Trolox dm^−3. […]. Blank samples without antioxidant were prepared in the same way. The tubes were wrapped in aluminum foil and were sealed with a stopper and then incubated for 10 min at room temperature. After this time, spectrophotometric measurements were carried out in triplicate. For determination of antioxidant activity of the acceptor fluid after 24 h of permeation and solutions obtained by extraction of the skin obtained after penetration study, 0.15 mL samples of each solutions were separately added to 2.85 mL of DPPH solution and spectrophotometric measurements were performed. The antioxidant activity was expressed as mmol Trolox·dm^−3."}, "[3]": {"assay": "Skin permeation in Franz diffusion cells", "format": "in vitro ADME, pig", "conditions": "24 h, 10 mg as FA applied", "experimental": "In the experiment, abdominal porcine skin coming from the local slaughterhouse was used. Pig skin was chosen because of its similar permeability to human skin [34, 35]. The fresh abdominal porcine skin was washed several times in PBS buffer pH 7.4. The skin of 0.5 mm in thickness was dermatomed and divided into 2 cm × 2 cm pieces. The skin samples were wrapped in aluminum foil and stored at −20 °C until use, not longer than 3 months. According to Badran et al., this storage time at this temperature is safe to keep skin barrier properties. Immediately before the experiment, the skin samples were slowly thawed at room temperature for 30 min and then were hydrated by PBS pH 7.4 [37, 38, 39, 40]. Such prepared skin was mounted on donor chamber. Only the undamaged skin pieces with an even thickness were chosen for experiments. The integrity of the skin was checked by impedance measurement using an LCRmeter4080 (Conrad Electronic, Hirschau, Germany), operated in parallel mode at an alternating frequency of 120 Hz (error at kΩ values < 0.5%). The tips of measuring probes were immersed in the donor and acceptor chamber containing PBS (pH 7.4), as described previously. Only skin samples of impedance > 3 kΩ were applied as such impedance is similar to the electrical resistance of human skin [42].\nThe concentration of FA and its derivatives in the acceptor fluid and in the fluid obtained by skin extraction after permeation experiment was assessed using liquid chromatography system (Knauer, Berlin, Germany) consisting of a model 2600 UV detector, Smartline model 1050 pump and Smartline model 3950 autosampler. HPLC was controlled by ClarityChrom 2009 software. The detector was operated at 280 nm. The separations were performed on 125 mm × 4 mm ID chromatographic column filled with Hyperisil ODS (C18), particle size 5 µm, in isocratic mode. The mobile phase consisted of acetonitrile, 1% acetic acid, and MeOH (47/47/6 v/v/v) and was pumped at flow rate of 1 mL min^−1. The column temperature was set at 25 °C, and the injection volume was 20 µL.\n(§2) The permeation experiments were performed using Franz diffusion cells (Phoenix DB-6, ABL&E-JASCO, Wien, Austria). The diffusion was 1 cm^2. The volume of the acceptor chamber was 8 mL. This chamber was filled with PBS solution (pH 7.4). During experiment, a constant temperature of 37.0 ± 0.5 °C was maintained in each diffusion unit. The acceptor chamber content was stirred with a magnetic stirring bar at the same speed for all cells. The prepared pig skin was mounted on each donor chamber. As previously mentioned, only undamaged skin pieces with an even thickness were chosen for experiments. Thereafter, the hydrogel or emulsion vehicle/preparation in 1 g portion was put on the skin in donor cells. For comparison, 1 mL ethanolic solution containing either FA or its derivatives was applied to another donor chamber. The amount of the FA and its derivatives applied on the skin expressed as the mass of ferulic acid was 0.01 g and was the same for each carrier. The penetration experiments were carried out for 24 h. The samples were collected after 1 h, 2 h, 3 h, 4 h, 5 h, 6 h, 8 h, and 24 h. Aliquots of the acceptor fluid (0.5 mL) were withdrawn and to each acceptor chamber the same volume of fresh PBS solution was added. The FA and its derivatives’ concentrations in the acceptor fluid were measured by HPLC method (Section 2.6.2). The cumulative mass (µg·cm^−2) and penetration rate (µg·cm^−2·h^−1) were calculated. The acceptor fluid collected after 24 h of permeation was also measured for antioxidant activity and total polyphenol content (as described in Section 2.5.1 and Section 2.5.2)."}, "[4]": {"assay": "DPPH antioxidant activity of acceptor fluid after 24 h permeation", "set-up": "species or system pig", "conditions": "after 24 h penetration", "experimental": "as §1, §2"}, "[5]": {"assay": "DPPH antioxidant activity of solution obtained after skin extraction", "set-up": "species or system pig", "conditions": "after 24 h penetration", "experimental": "as §1\n(§3) The accumulation of the FA and its derivatives in the skin after 24 h permeation process through the skin were determined using a modification of the methods described by Janus et al. and Taokaew et al.. After 24 h of permeation experiment, the skin samples were removed from the Franz diffusion cell, washed three times with 0.5% sodium lauryl sulfate solution and dried at room temperature. Next, after cutting out the diffusion area of each skin sample, the samples were immersed in 2 mL of absolute ethanol and continuously stirred at 300 rpm at room temperature for 24 h. The samples were then centrifuged, and clear solutions were collected and analyzed by HPLC method for the determination of FA and its derivatives. The accumulation of the active substance in the skin was calculated by dividing the amount of the drug remaining in the skin by a mass of skin sample and was expressed in mass active substance per mass of the skin (µg g^−1). For solution obtained after skin extraction, the antioxidant activity and total polyphenol content were also determined (as described in Section 2.5.1 and Section 2.5.2)."}, "[6]": {"assay": "Accumulation in the skin after 24 h permeation", "format": "in vitro ADME, pig", "conditions": "24 h penetration, ethanol solution", "experimental": "as §3"}, "[7]": {"assay": "Thermogravimetric (TG) analysis, thermal stability", "format": "physicochemical", "conditions": "air atmosphere, 10 °C·min^−1", "experimental": "Samples of 2–5 mg, loaded in aluminium crucibles, were heated from 30 °C to 600 °C at the heating rate of 10 °C·min^−1, in the air atmosphere (25 mL·min^−1) with nitrogen flow (10 mL·min^−1) as the purge gas."}, "[8]": {"tested_on": "Murine fibroblasts (L929)", "assay": "Cytotoxicity, PrestoBlue resazurin-based cell viability assay", "conditions": "2.0 mM, 24 h, PrestoBlue, normalized to control", "procedure": "The cell biocompatibility was evaluated using a PrestoBlue HS Cell Viability Reagent (Thermo Fisher Scientific, MA USA) based on the reduction of the resazurin to highly fluorescent resorufin, of which the amount is directly correlated to the number of living cells. […] The cells without tested compounds were used as control. The interaction of tested compounds without cells and Prestoblue Reagent (blank wells) was excluded. After 24 h of treatment, optical microscopy imaging of L929 cells was performed using Smart Fluorescent Cell Analyzer Microscope JuLi (Seoul, Korea). Next, the PrestoBlue reagent (10 μL) was added to each well and incubated for 30 min. The fluorescence was measured using a spectrophotometric microplate reader (Infinite 200 Pro, Tecan, Männedorf, Switzerland) at ex/em: 560/594 nm. The readings were acquired from at least three independent experiments (each conducted in triplicate) and normalized to the control (100% viability)."}, "[9]": {"conditions": "molar ratio antioxidant:DPPH 0.1, 10 min"}, "[10]": {"conditions": "molar ratio antioxidant:DPPH 1.0, 10 min"}, "[11]": {"conditions": "molar ratio antioxidant:DPPH 2.0, 10 min"}}, "note": "“And” between values parts separate entries of the source, which are not always exact repeats. Equal entries are not always repeated.", "data": [{"smiles": "CCCOC(=O)[C@@H]1CCCN1.COc1cc(/C=C/C(=O)O)ccc1O", "note": "[PPr[FA], L-proline propyl ester ferulate]", "values": [{"measurement": "Share of compound partitioned to n-octanol", "setting": "[1]; from log PO/W", "value": 74, "unit": "%"}, {"measurement": "log PO/W", "setting": "[1]; n-octanol/water, shake flask, 25 °C", "value": "0.447 ± 0.022"}, {"measurement": "Antioxidant activity %RSA", "setting": "[2]; [9]", "value": "19.3 ± 0.001 %RSA and 19.3 ± 0.001 a %RSA"}, {"measurement": "Antioxidant activity, Trolox equivalents", "setting": "[2]; [9]", "value": "0.115 ± 0.001 mmol Trolox dm^−3 and 0.115 ± 0.001 a mmol Trolox dm^−3"}, {"measurement": "Antioxidant activity %RSA", "setting": "[2]; [10]", "value": "79.6 ± 0.001", "unit": "b %RSA"}, {"measurement": "Antioxidant activity, Trolox equivalents", "setting": "[2]; [10]", "value": "0.697 ± 0.001", "unit": "b mmol Trolox dm^−3"}, {"measurement": "Antioxidant activity %RSA", "setting": "[2]; [11]", "value": "87.7 ± 0.001 %RSA and 87.7 ± 0.001 b %RSA"}, {"measurement": "Antioxidant activity, Trolox equivalents", "setting": "[2]; [11]", "value": "0.775 ± 0.001 mmol Trolox dm^−3 and 0.775 ± 0.001 b mmol Trolox dm^−3"}, {"measurement": "Cumulative Permeation Mass", "setting": "[3]; from emulsion", "value": "128.80 ± 19.86 µg FA·cm^−2 and 128.80 ± 19.86 a µg FA·cm^−2"}, {"measurement": "Cumulative Permeation Mass", "setting": "[3]; from hydrogel", "value": "396.86 ± 42.13 µg FA·cm^−2 and 396.86 ± 42.13 b µg FA·cm^−2"}, {"measurement": "Cumulative Permeation Mass", "setting": "[3]; from solution in 70% (v/v) ethanol", "value": "427.00 ± 4.674 µg FA·cm^−2 and 427.00 ± 4.67 b µg FA·cm^−2"}, {"measurement": "DPPH antioxidant activity of the acceptor fluid", "setting": "[4]; emulsion", "value": "0.061 ± 0.007 mmol Trolox dm^−3 and 0.061 ± 0.007 a mmol Trolox dm^−3"}, {"measurement": "DPPH antioxidant activity of the acceptor fluid", "setting": "[4]; ethanol solution", "value": "0.094 ± 0.002", "unit": "a mmol Trolox dm^−3"}, {"measurement": "DPPH antioxidant activity of the acceptor fluid", "setting": "[4]; hydrogel", "value": "0.075 ± 0.012 mmol Trolox dm^−3 and 0.075 ± 0.012 a mmol Trolox dm^−3"}, {"measurement": "DPPH antioxidant activity of the solution obtained after skin extraction", "setting": "[5]; emulsion", "value": "0.198 ± 0.006", "unit": "a mmol Trolox dm^−3"}, {"measurement": "DPPH antioxidant activity of the solution obtained after skin extraction", "setting": "[5]; ethanol solution", "value": "0.259 ± 0.007", "unit": "a mmol Trolox dm^−3"}, {"measurement": "DPPH antioxidant activity of the solution obtained after skin extraction", "setting": "[5]; hydrogel", "value": "0.351 ± 0.036", "unit": "ab mmol Trolox dm^−3"}, {"measurement": "Accumulation in the skin compared to pure FA", "setting": "[6]", "value": "accumulated in a significantly smaller amount compared to pure FA"}, {"measurement": "Td onset, the onset of decomposition", "setting": "[7]; TG", "value": 122.8, "unit": "°C"}, {"measurement": "Td max, temperature of the fastest mass loss of the sample", "setting": "[7]; TG/DTG", "value": 148.7, "unit": "°C"}, {"measurement": "L929 viability", "setting": "[8]", "value": "78.56 ± 2.73", "unit": "%"}]}]}
